In patent US20240279232A1, “USE OF SUBSTITUTED 5-(4-METHYL-6-PHENYL-4H-BENZO[F]IMIDAZO[1,5-A][1,4] DIAZEPIN-3-YL)-1,2,4-O[…] THE TREATMENT OF INFLAMMATORY CONDITIONS” (priority 2021, published 2024):

What was measured:
[1] = test system: RAW macrophages; assay: NO production (Griess assay), LPS/IFNγ-activated RAW264.7 macrophages; assay type: cell-based, mouse; conditions: for Inhibition of NO production (%) RAW macrophages 10 μM: 24 hours, 1 μM GABA, LPS/IFNγ
[2] = test system: HEK293; assay: Viability assay (CellTiter-Glo), HEK293; assay type: cell-based, human; conditions: for Cell viability (%) HEK293 120 μM: CellTiter-Glo
Description: (§1) The screen identified several compounds that reduced NO in activated microglia and macrophages. The tested compounds included achiral and chiral imidazodiazepines and benzodiazepines. In general, microglia were more sensitive to compound treatment with more pronounced reduction of NO than macrophages. […] Cell viability assays with HEK293 (kidney) and HepG2 (liver) cells were conducted in a concentration dependent manner. A limited number of compounds, such as GL-III-63, GL-III-76A, and GL-III-77, were toxic at 120 μM.
(§2) Viability assay. Human liver hepatocellular carcinoma (HEPG2) and human embryonic kidney 293T (HEK293T) cell lines were purchased (ATCC) and cultured in 75 cm^2 flasks (CellStar). Cells were grown in DMEM/High Glucose (Hyclone, #SH3024301) media to which non-essential amino acids (Hyclone, #SH30238.01), 10 mM HEPES (Hyclone, #SH302237.01), 5×10^6 units of penicillin and streptomycin (Hyclone, #SV30010), and 10% of heat inactivated fetal bovine serum (Gibco, #10082147) were added. Cells were harvested using 0.05% Trypsin (Hyclone, #SH3023601), washed with PBS, and dispensed into sterile white, optical bottom 384-well plates (NUNC, #142762). After three hours, small molecule DMSO solutions were transferred with a Tecan Freedom EVO liquid handling system equipped with a 100 nL pin tool (V&P Scientific). The controls were 3-dibutylamino-1-(4-hexyl-phenyl)-propan-1-one (25 mM in DMSO, positive control) and DMSO (negative control). The cells were incubated for 48 hours followed by the addition of CellTiter-Glo™, a luminescence-based cell viability assay (Promega, Madison, WI). All luminescence readings were performed on a Tecan Infinite M1000 plate reader. The assay was carried out in quadruplet with two independent runs. The data were analyzed by nonlinear regression.

[3] = test system: Mouse microglia; assay: NO production (Griess assay), LPS/IFNγ-activated mouse microglia; assay type: cell-based; conditions: for Inhibition of NO production (%) Mouse microglia 10 μM / Inhibition of NO production (%) Mouse microglia 50 μM: 24 hours, 1 μM GABA, LPS/IFNγ; for inhibition at 10 µM / inhibition at 50 µM: Mus musculus, Microglia, 24 h
Description: (§3) Next, a library of GABAAR ligands was investigated to identify compounds that reduce the production of NO as a marker of anti-inflammatory activity. […] NO was quantified with a Greiss assay. Cell viability was determined with CellTiter-Glo.
Cell culture. A) HMC3 Microglia (CRL-3304) were maintained in treated cell culture flasks (Nunc, 156472) with EMEM (Corning, 10010CV) supplemented with 10% heat-inactivated FBS (Corning, 35011CV) and 100 U/mL penicillin and 100 μg/mL streptomycin (Hyclone, SV30010). Cultures were maintained at 37° C. and 5% CO2. When cells reached a density of 7×10^4 cells/mL, cultures were passaged with 0.25% Trypsin (Corning, 25-053-CI) and resuspended to a density no lower than 10,000 cells/mL. B) Human and mouse microglia cell lines were a gift from Dr. David Alvarez-Carbonell at Case Western Reserve University (Cleveland, OH). Microglia were cultured in cell culture treated flasks (Nunc, 156472) with DME/F12 media (Hyclone, SH30023.01) supplemented with 10% heat-inactivated FBS (Corning, 35011CV), 100 U/mL penicillin/100 μg/mL streptomycin (Hyclone, SV30010), and Normocin (Invivogen, ant-nr). Cultures were maintained at 37° C. and 5% CO2. […] Cultures were maintained at 37° C. and 5% CO2. Cells were passaged when they reached a density of approximately 3×10^6 cells/mL using cell scrapers (VWR, 10062-906) to lift cells from flask surface and resuspended at densities of approximately 500,000 cells/mL.
(§4) Nitric oxide production (Griess assay) and viability assay (CellTiter-Glo). 80 μL of mouse microglia culture (1×10^6 cells/mL) was plated into sterile 384 well plates representing non-activated wells. The remaining culture was activated with 50 ng/ml LPS (Invivogen, NC9836) and 150 U/mL IFNγ (R&D Systems, 485MI100) and distributed into the 384 well plates. […] Assay plates were incubated for approximately 24 hours (unless otherwise noted) at 37° C., centrifuged, and 40 μL of supernatant transferred to a new plate for analysis using the Griess Assay (Promega, Madison, WI). Absorbance at 530 nm was measured using a TECAN Infinite M1000 plate reader. The remaining 40 μL containing cells was analyzed for toxicity by the CellTiter-Glo Assay (Promega, Madison, WI). Luminescence was read using a TECAN Infinite M1000 plate reader.

[4] = test system: Mouse microglia; assay: Cell viability (CellTiter-Glo), mouse microglia; assay type: cell-based; conditions: 50 μM, CellTiter-Glo
Description: as §3, §4

[5] = test system: HEPG2; assay: Viability assay (CellTiter-Glo), HEPG2; assay type: cell-based, human; conditions: for Cell viability (%) HEPG2 120 μM: CellTiter-Glo
Description: as §1, §2

[6] = test system: RAW macrophages; assay: Cell viability (CellTiter-Glo), RAW macrophages; assay type: cell-based, mouse; conditions: CellTiter-Glo
[7] = test system: BZR (benzodiazepine site of GABAAR); assay: GABAAR/BZR binding, rat brain homogenate with 3H-flunitrazepam; conditions: rat brain homogenate, 3H-flunitrazepam; for BZR %: Percent inhibition at 10,000 nM
Method in brief: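 Rat brain homogenate incubated with 3H-flunitrazepam near its Kd, typically 90 min at room temperature in the dark; nonspecific binding defined with 10 μM reference compound. Filtration on PEI-soaked mats, scintillation counting; compounds screened at 10,000 nM, those above 50% displacement taken to concentration–response for Ki by nonlinear regression (n=6).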

[8] = target: T1, MOR (μ opioid receptor) (Homo sapiens, UniProt P35372); assay: MOR radioligand binding ([3H]-DAMGO, HEK293 cell homogenates)
T1 construct: expressed in transfected cells; host or cells: HEK293
T1 sequence (P35372 whole entry, species assumed): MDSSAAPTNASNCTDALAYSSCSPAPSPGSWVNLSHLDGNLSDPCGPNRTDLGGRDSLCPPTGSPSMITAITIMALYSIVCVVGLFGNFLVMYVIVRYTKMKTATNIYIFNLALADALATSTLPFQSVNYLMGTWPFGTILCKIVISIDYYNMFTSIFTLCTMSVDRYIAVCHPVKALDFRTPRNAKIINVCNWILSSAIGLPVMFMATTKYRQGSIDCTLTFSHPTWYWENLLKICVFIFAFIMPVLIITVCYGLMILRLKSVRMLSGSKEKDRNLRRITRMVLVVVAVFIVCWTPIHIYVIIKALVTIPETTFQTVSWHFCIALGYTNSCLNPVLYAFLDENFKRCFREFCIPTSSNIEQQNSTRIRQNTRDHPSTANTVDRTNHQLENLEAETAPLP

[9] = target: T2, KOR (κ opioid receptor) (Homo sapiens, UniProt P41145); assay: KOR radioligand binding ([3H]-U69593, HEK293 cell homogenates)
T2 construct: expressed in transfected cells; host or cells: HEK293 (stably transfected)
T2 sequence (P41145 whole entry): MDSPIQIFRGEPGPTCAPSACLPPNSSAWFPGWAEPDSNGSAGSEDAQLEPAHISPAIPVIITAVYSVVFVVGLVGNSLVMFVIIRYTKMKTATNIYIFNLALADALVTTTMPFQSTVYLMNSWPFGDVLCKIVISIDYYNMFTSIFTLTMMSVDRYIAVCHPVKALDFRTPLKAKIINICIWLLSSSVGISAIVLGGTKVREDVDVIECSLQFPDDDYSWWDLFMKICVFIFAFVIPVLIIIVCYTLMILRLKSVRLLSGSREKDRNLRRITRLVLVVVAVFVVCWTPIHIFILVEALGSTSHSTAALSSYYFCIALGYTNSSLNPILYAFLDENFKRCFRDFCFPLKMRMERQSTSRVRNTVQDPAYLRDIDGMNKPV

[10] = target: T3, DOR (δ opioid receptor) (Homo sapiens, UniProt P41143); assay: DOR radioligand binding ([3H]-DADLE, HEK293 cell homogenates); conditions: Percent inhibition at 10,000 nM; [3H]-DADLE
T3 construct: expressed in transfected cells; host or cells: HEK293
T3 sequence (P41143 whole entry): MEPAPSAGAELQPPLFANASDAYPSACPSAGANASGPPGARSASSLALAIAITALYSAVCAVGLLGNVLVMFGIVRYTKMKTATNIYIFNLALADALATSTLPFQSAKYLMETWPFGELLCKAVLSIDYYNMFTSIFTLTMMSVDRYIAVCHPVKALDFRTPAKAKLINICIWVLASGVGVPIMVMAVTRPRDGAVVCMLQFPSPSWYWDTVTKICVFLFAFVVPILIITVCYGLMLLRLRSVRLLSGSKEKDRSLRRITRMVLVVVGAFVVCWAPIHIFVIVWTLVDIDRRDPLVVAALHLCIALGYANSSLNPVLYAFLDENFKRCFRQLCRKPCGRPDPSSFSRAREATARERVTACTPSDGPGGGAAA

[11] = Percent inhibition at 10,000 nM, [3H]-DAMGO
[12] = Percent inhibition at 10,000 nM, [3H]-U69593

## CC1N=C(c2ccccc2F)c2cc(Br)ccc2-n2cnc(-c3cnco3)c21 (racemic) [GL-III-76A]
[1]
  Inhibition of NO production (%) RAW macrophages 10 μM: 6 ± 3%
[2]
  Cell viability (%) HEK293 120 μM: 0 ± 3%
[2]; HEK293, 120 μM
  toxicity at 120 μM (in words): toxic
[3]
  Inhibition of NO production (%) Mouse microglia 10 μM: 58 ± 9%
[4]
  Cell viability (%) Mouse microglia 50 μM: 100 ± 9%
[5]
  Cell viability (%) HEPG2 120 μM: 0 ± 2%
[5]; HepG2, 120 μM
  toxicity at 120 μM (in words): toxic
[6]
  Cell viability (%) RAW macrophages 50 μM: 97 ± 4%

## C#Cc1ccc2c(c1)C(c1ccccc1)=NCc1c(C(=O)OCCCO)ncn1-2 [GL-I-48]
[1]
  Inhibition of NO production (%) RAW macrophages 10 μM: 4 ± 2%
[2]
  Cell viability (%) HEK293 120 μM: 65 ± 8%
[3]
  Inhibition of NO production (%) Mouse microglia 10 μM: 0 ± 4%
[4]
  Cell viability (%) Mouse microglia 50 μM: 78 ± 5%
[5]
  Cell viability (%) HEPG2 120 μM: 100 ± 4%
[6]
  Cell viability (%) RAW macrophages 50 μM: 100 ± 12%

## C#Cc1ccc2c(c1)C(c1ccccc1F)=N[C@@H](C)c1c(-c3nc(C(C)C)no3)ncn1-2 [GL-I-81, (S)-5-(8-Ethynyl-6-(2-fluorophenyl)-4-methyl-4H-benzo[f]imidazo[1,5-a][1,4]diazepin-3-yl)-3-isopropyl-1,2,4-oxadiazole]
[1]; Mus musculus, Macrophage, 24 h
  inhibition at 10 µM: 0%
  inhibition at 50 µM: 6 ± 2%
[3]
  inhibition at 10 µM: 64 ± 9%
  inhibition at 50 µM: 87 ± 2%
[4]
  Cell viability (%) Mouse microglia 50 μM: 94 ± 10%
[7]
  BZR %: 83%
  Ki: 839 nM
[8]
  Ki: 2920 nM
[8]; [11]
  inhibition at 10 µM: 64%
[9]
  Ki: 127 nM
[9]; [12]
  inhibition at 10 µM: 93%
[6]
  Cell viability (%) RAW macrophages 50 μM: 91 ± 7%
[10]
  inhibition at 10 µM: 25%

## C#Cc1ccc2c(c1)C(c1ccccn1)=N[C@H](C)c1c(C(=O)OCC)ncn1-2 [GL-II-19]
[1]; Mus musculus, Macrophage, 24 h
  inhibition at 10 µM: 2 ± 2%
[2]
  Cell viability (%) HEK293 120 μM: 90 ± 5%
[3]
  inhibition at 10 µM: 32 ± 4%
[4]
  Cell viability (%) Mouse microglia 50 μM: 100 ± 11%
[7]
  BZR %: 71%
  Ki: 1140 nM
[8]; [11]
  inhibition at 10 µM: 17%
[9]; [12]
  inhibition at 10 µM: 44%
[5]
  Cell viability (%) HEPG2 120 μM: 100 ± 9%
[10]
  inhibition at 10 µM: 2%

## C#Cc1ccc2c(c1)C(c1ccccn1)=N[C@H](C)c1c(C(=O)OC)ncn1-2 [GL-II-32]
[1]; Mus musculus, Macrophage, 24 h
  inhibition at 10 µM: 6 ± 3%
[2]
  Cell viability (%) HEK293 120 μM: 80 ± 6%
[3]
  inhibition at 10 µM: 7 ± 2%
[4]
  Cell viability (%) Mouse microglia 50 μM: 95 ± 8%
[7]
  BZR %: 63%
  Ki: 1430 nM
[8]; [11]
  inhibition at 10 µM: 32%
[9]; [12]
  inhibition at 10 µM: 35%
[6]
  Cell viability (%) RAW macrophages 50 μM: 100 ± 4%
[10]
  inhibition at 10 µM: 0%

## C#Cc1ccc2c(c1)C(c1ccccn1)=NC(C)c1c(-c3nc(C)no3)ncn1-2 (stereo not shown) [GL-II-33]
[3]
  Inhibition of NO production (%) Mouse microglia 50 μM: 0 ± 3%
[3]; dexamethasone 100 nM, GABA 1 μM, MP-IV-010 50 μM, GL-II-33 in the library screen
  NO production of activated microglia (in words): did not reduce NO production
[4]
  Cell viability (%) Mouse microglia 50 μM: 100 ± 4%
[6]
  Cell viability (%) RAW macrophages 50 μM: 100 ± 7%

## C#Cc1ccc2c(c1)C(c1ccccn1)=N[C@H](C)c1c(-c3nc(CC)no3)ncn1-2 [GL-II-54]
[3]
  inhibition at 50 µM: 0%
[4]
  Cell viability (%) Mouse microglia 50 μM: 95 ± 3%
[7]
  BZR %: 66%
  Ki: 2040 nM
[8]; [11]
  inhibition at 10 µM: 0%
[9]
  Ki: 504 nM
[9]; [12]
  inhibition at 10 µM: 80%
[6]
  Cell viability (%) RAW macrophages 50 μM: 100 ± 8%
[10]
  inhibition at 10 µM: 0%

## C#Cc1ccc2c(c1)C(c1ccccn1)=NCc1c(C(=O)O)ncn1-2 [GL-III-13]
[1]
  Inhibition of NO production (%) RAW macrophages 10 μM: 0 ± 2%
[2]
  Cell viability (%) HEK293 120 μM: 74 ± 5%
[4]
  Cell viability (%) Mouse microglia 50 μM: 92 ± 9%
[5]
  Cell viability (%) HEPG2 120 μM: 100 ± 10%
[6]
  Cell viability (%) RAW macrophages 50 μM: 100 ± 9%

## C#Cc1ccc2c(c1)C(c1ccccn1)=NCC(=O)N2 [GL-III-58]
[2]
  Cell viability (%) HEK293 120 μM: 89 ± 2%
[3]
  Inhibition of NO production (%) Mouse microglia 10 μM: 48 ± 4%
[4]
  Cell viability (%) Mouse microglia 50 μM: 83 ± 4%
[5]
  Cell viability (%) HEPG2 120 μM: 100 ± 5%
[6]
  Cell viability (%) RAW macrophages 50 μM: 100 ± 14%

## C#Cc1ccc2c(c1)C(c1ccccn1)=NCc1c(-c3cnco3)ncn1-2 [KRM-II-81]
[2]
  Cell viability (%) HEK293 120 μM: 96 ± 11%
[3]
  Inhibition of NO production (%) Mouse microglia 50 μM: 0 ± 1%
[4]
  Cell viability (%) Mouse microglia 50 μM: 100 ± 5%
[7]
  BZR %: 86%
  Ki: 294 nM
[8]; [11]
  MOR %: 7%
[9]; [12]
  KOR %: 46%
[5]
  Cell viability (%) HEPG2 120 μM: 100 ± 12%
[10]
  DOR %: 15%
